This note sets out measurements from patent US20240034717A1, “NOVEL POTASSIUM CHANNEL INHIBITORS” (Saniona A/S, priority 2020, published 2024).

Structures are written as SMILES. “And” between values parts separate entries of the source, which are not always exact repeats. Equal entries are not always repeated. A value given as a limit tells only on which side of the number the result lay.

The term solubility denotes the concentration that dissolves in the medium under given conditions. The term IC50 denotes the concentration that gives 50% inhibition.

A short description of one series: physchem. The following applies: for solubility at 16 h: 25 °C, pH 7.4, aqueous buffer, kinetic from dmso stock; for Measured Solubility in pH 7.4 phosphate buffer (mg/ml) / Measured Solubility in pH 7.4 phosphate buffer (μM): 50 mM potassium phosphate buffer pH 7.40, 16 hr at ~25° C., incubation concentration 1600 μM. Here is the method:
2.79 g of K2HPO4 and 0.54 g of KH2PO4 was dissolved in 390 mL of milliQ water. pH was adjusted to 7.4 using 1N HCl/1N NaOH and final volume was made up to 400 mL with milliQ water.
In case of compounds not soluble/less quantity submission, 40/20/10Mm stocks were prepared and used for experiment.
Assay Procedure: • 245 μL of 50 mM phosphate buffer then 5 μL each of test compound/standards (80 mM) in their respective positions was added to the 1.1 mL 96 well plate. • DMSO Controls was prepared by taking 245 μL of 100% DMSO then 5 μL each of test compound in their respective positions and added to the 1.1 mL 96 well plate • Plate was incubated with mixing at 1600 RPM for 16 hours at room temperature (˜23 MC). • After incubation, samples were filtered using Millipore plates. • Filtrates were analysed by HPLC-UV.
Solubility is calculated using the following formula: […]

Series [1] deals with erythrocyte KCa3.1 channels (Homo sapiens (Human), UniProt O15554). In words: Erythrocyte KCa3.1 assay. The following applies: human erythrocytes, A23187-activated KCa3.1; read-out: RBC K (in vitro) Human IC50 (μM) Potency category. It is filed as cell-based. Here is the method: Human blood was drawn from healthy human volunteers in a standard heparinized blood sampling vial (Vacutainer, Li/heparin, ED Bioscience, Plymouth, UK). The erythrocytes were packed by centrifugation, and the plasma and buffy coat were removed by aspiration. Erythrocytes were washed three times in the experimental salt solution and then stored at 0° C. until use. Blood samples from NMRI mice or from Wistar rats were treated similarly. The methodological principle is outlined in Macey et al. (1978) and further described in Strøbaek et al. (2013). Activation of the erythrocyte KCa3.1 channels were obtained by addition of the Ca^2+ ionophore A23187, which causes synchronized hyperpolarization, which is reported as a CCCP-mediated shift in the unbuffered extracellular pH of the erythrocyte suspension. Standard procedure: 3 mL unbuffered experimental salt solution (in mM: 2 KCl, 154 NaCl, 0.05 CaCl2) was heated to 37° C. with stirring. Packed erythrocytes were added (50 μL, final cytocrit 1.5%), and the extracellular pH (pHo) followed with a glass/calomel (pHG200-8/REF200, Radiometer, Denmark) electrode pair. CCCP (3 μL, final concentration 20 μM) was added followed by varying concentrations of test compounds (DMSO concentration constant). After pH stabilization at ˜7.2, A23187 (3 μL, final concentration 0.33 μM) was added to initiate the experiment. After the peak hyperpolarization was attained, the intracellular pH (pHi constant during the experiment) was found by haemolysing the erythrocytes via addition of 100 μL of Triton-X100.
The erythrocyte membrane potential, Vm, was calculated according to: […]
and the fractional remaining Ca^2+-activated K^+-conductance at the concentration C of blocker, fGK(C), was calculated from
where the K^+ equilibrium potential EK=−107 mV, the Cl^− equilibrium potential ECl=−12 mV and the Vm(0) and Vm(C) are the peak hyperpolarizations in the control and in the presence of a concentration of C of blocker respectively.
IC50 values for compounds were calculated from a plot of fGK(C) versus C by a fit to the Hill equation, using a custom program written in the IGOR-Pro software (WaveMetrics, Lake Oswego, OR, USA). All IC50-values are reported in μM.

With `COC(=O)N(CC(C)(C)N)C1(c2cccc(C(F)(F)F)c2)CC1` [Methyl (2-amino-2-methylpropyl)(1-(3-(trifluoromethyl)phenyl)cyclopropyl)carbamate], the solubility at 16 h in the series “physchem” is 526 µg/mL and 1400 µM. Besides, the IC50 in series [1] is less than 0.3 µM.
With `COC(=O)N(CC(C)(C)N)C1(c2cccc(Br)c2)CC1` [Methyl (2-amino-2-methylpropyl)(1-(3-bromophenyl)cyclopropyl)carbamate], the solubility at 16 h in “physchem” was 376 µg/mL and 800 µM. The IC50 in series [1] is less than 1 µM.
As for `COC(=O)N(CC(C)(C)N)C1(c2cccc(Cl)c2)CC1` [Methyl (2-amino-2-methylpropyl)(1-(3-chlorophenyl)cyclopropyl)carbamate], the solubility at 16 h in the series “physchem” is 634 µg/mL and 1500 µM. The IC50 in series [1] is less than 1 µM.
Consider `COC(=O)N(CC(C)(C)N)C1(c2ccc(F)c(OC(F)(F)F)c2)CC1` [Methyl (2-amino-2-methylpropyl)(1-(4-fluoro-3-(trifluoromethoxy)phenyl)cyclopropyl)carbamate], for which, in the series “physchem”, the solubility at 16 h is 584 µg/mL and 1500 µM. Also, in series [1], the IC50 was less than 0.3 µM.
Take `COC(=O)N(CC(C)(C)N)C1(c2ccc(F)c(C(F)(F)F)c2)CC1` [Methyl (2-amino-2-methylpropyl)(1-(4-fluoro-3-(trifluoromethyl)phenyl)cyclopropyl)carbamate]: the solubility at 16 h in “physchem” is 556 µg/mL and 1600 µM. The IC50 in series [1] is less than 0.3 µM.
In the case of `COC(=O)N(CC(C)(C)N)C1(c2cc(C(F)(F)F)c(F)cn2)CC1` [Methyl (2-amino-2-methylpropyl)(1-(5-fluoro-4-(trifluoromethyl)pyridin-2-yl)cyclopropyl) carbamate], in the series “physchem”, the “Measured Solubility in pH 7.4 phosphate buffer (mg/ml)” value (“Measured Solubility … (mg/ml)” for short) amounted to 0.5636 mg/ml and the “Measured Solubility in pH 7.4 phosphate buffer (μM)” value (from here on “Measured Solubility … (μM)”) is reported as 1500 μM. In addition, the IC50 in series [1] is less than 1 µM.
The corresponding values for `COC(=O)N(CC1(N)CC1)C1(c2ccc(F)c(C(F)(F)F)c2)CC1` [Methyl ((1-aminocyclopropyl)methyl)(1-(4-fluoro-3-(trifluoromethyl)phenyl)cyclopropyl) carbamate] are 0.5599 mg/ml, 1600 μM and less than 0.3 µM.
With `COC(=O)N(C[C@H]1CCCN1)C1(c2ccc(F)c(OC(F)(F)F)c2)CC1` [Methyl (R)-(1-(4-fluoro-3-(trifluoromethoxy)phenyl)cyclopropyl)(pyrrolidin-2-ylmethyl)carbamate], the solubility at 16 h in “physchem” was 677 µg/mL and 1600 µM. Further, the IC50 in series [1] is less than 1 µM.
Turning to `COC(=O)N(C[C@H]1CCCN1C)C1(c2ccc(F)c(C(F)(F)F)c2)CC1` [Methyl (R)-(1-(4-fluoro-3-(trifluoromethyl)phenyl)cyclopropyl)((1-methylpyrrolidin-2-yl)methyl)carbamate], the solubility at 16 h in the series “physchem” is 558 µg/mL and 1500 µM. Besides, in series [1], the concentration for half-maximal inhibition (IC50) is less than 0.3 µM.
On to `COC(=O)N(C[C@@]1(C)CCCN1)C1(c2ccc(F)c(C(F)(F)F)c2)CC1` [Methyl (R)-(1-(4-fluoro-3-(trifluoromethyl)phenyl)cyclopropyl)((2-methylpyrrolidin-2-yl)methyl)carbamate], for which the solubility at 16 h in “physchem” was 585 µg/mL and 1400 µM. In series [1], the half-inhibitory concentration (IC50) is less than 0.3 µM.
Turning to `COC(=O)N(C[C@H]1CCCN1)C1(c2ccc(F)c(C(F)(F)F)c2)CC1` [Methyl (R)-(1-(4-fluoro-3-(trifluoromethyl)phenyl)cyclopropyl)(pyrrolidin-2-ylmethyl)carbamate], the solubility at 16 h in “physchem” was 667 µg/mL and 1700 µM. Also, the IC50 in series [1] is less than 0.3 µM.
Regarding `COC(=O)N(C[C@@H]1CCCN1)C1(c2ccc(F)c(OC(F)(F)F)c2)CC1` [Methyl (S)-(1-(4-fluoro-3-(trifluoromethoxy)phenyl)cyclopropyl)(pyrrolidin-2-ylmethyl)carbamate], the solubility at 16 h in “physchem” was 674 µg/mL and 1600 µM. Moreover, the IC50 in series [1] is less than 0.3 µM.
Turning to `COC(=O)N(C[C@@H]1CCCN1C)C1(c2ccc(F)c(C(F)(F)F)c2)CC1` [Methyl (S)-(1-(4-fluoro-3-(trifluoromethyl)phenyl)cyclopropyl) ((1-methylpyrrolidin-2-yl)methyl) carbamate], in the series “physchem”, the “Measured Solubility … (mg/ml)” value turned out to be 0.5918 mg/ml and the “Measured Solubility … (μM)” value worked out at 1600 μM. Moreover, the IC50 in series [1] is less than 0.3 µM.
In the case of `COC(=O)N(C[C@]1(C)CCCN1)C1(c2ccc(F)c(C(F)(F)F)c2)CC1` [Methyl (S)-(1-(4-fluoro-3-(trifluoromethyl)phenyl)cyclopropyl)((2-methylpyrrolidin-2-yl)methyl)carbamate], in the series “physchem”, the solubility at 16 h was 575 µg/mL and 1400 µM. Further, in series [1], the IC50 is less than 0.3 µM.
`COC(=O)N(C[C@H]1COCCN1C)C1(c2ccc(F)c(C(F)(F)F)c2)CC1` [Methyl (S)-(1-(4-fluoro-3-(trifluoromethyl)phenyl)cyclopropyl)((4-methylmorpholin-3-yl)methyl)carbamate]: the solubility at 16 h in the series “physchem” was 600 µg/mL and 1500 µM. In series [1], the IC50 was less than 0.3 µM.
Turning to `COC(=O)N(C[C@H]1COCCN1)C1(c2ccc(F)c(C(F)(F)F)c2)CC1` [Methyl (S)-(1-(4-fluoro-3-(trifluoromethyl)phenyl)cyclopropyl)(morpholin-3-ylmethyl) carbamate], in the series “physchem”, the “Measured Solubility … (mg/ml)” value is recorded as 0.6118 mg/ml and the “Measured Solubility … (μM)” value was 1500 μM. Moreover, the IC50 in series [1] was less than 1 µM.
Turning to `COC(=O)N(C[C@@H]1CCCN1)C1(c2ccc(F)c(C(F)(F)F)c2)CC1` [Methyl (S)-(1-(4-fluoro-3-(trifluoromethyl)phenyl)cyclopropyl)(pyrrolidin-2-ylmethyl)carbamate], in the series “physchem”, the solubility at 16 h was 653 µg/mL and 1600 µM. Besides, the IC50 in series [1] is less than 0.3 µM.
As for `COC(=O)N(C[C@@H]1CCN1)C1(c2ccc(F)c(C(F)(F)F)c2)CC1` [Methyl (S)-(azetidin-2-ylmethyl)(1-(4-fluoro-3-(trifluoromethyl)phenyl)-cyclopropyl)carbamate], in “physchem”, the solubility at 16 h is 591 µg/mL and 1700 µM. Also, the IC50 in series [1] is less than 1 µM.
Turning to `COC(=O)N(CC1CCN1)C1(c2ccc(F)c(OC(F)(F)F)c2)CC1` (centres unmarked) [Methyl (azetidin-2-ylmethyl)(1-(4-fluoro-3-(trifluoromethoxy)phenyl)cyclopropyl)carbamate], the solubility at 16 h in the series “physchem” was 558 µg/mL and 1500 µM. Moreover, the IC50 in series [1] is less than 0.3 µM.
For the molecule `COC(=O)N(CC1CCN1)C1(c2ccc(F)c(C(F)(F)F)c2)CC1` (centres unmarked) [Methyl (azetidin-2-ylmethyl)(1-(4-fluoro-3-(trifluoromethyl)phenyl)cyclopropyl)carbamate], the solubility at 16 h in “physchem” is 687 µg/mL and 1500 µM. Also, the IC50 in series [1] is less than 0.3 µM.
Turning to `COC(=O)N(CCN(C)C)C1(c2ccc(F)c(C(F)(F)F)c2)CC1` [Methyl N-(2-(dimethylamino)ethyl)-N-(1-(4-fluoro-3-(trifluoromethyl)phenyl)cyclopropyl) carbamate], in the series “physchem”, the “Measured Solubility … (mg/ml)” value is 0.5409 mg/ml and the “Measured Solubility … (μM)” value came to 1600 μM. The IC50 in series [1] was less than 1 µM.
With `CC(C)(N)CNC1(c2ccc(F)c(C(F)(F)F)c2)CC1` [N1-(1-(4-fluoro-3-(trifluoromethyl)phenyl)cyclopropyl)-2-methylpropane-1,2-diamine], the solubility at 16 h in “physchem” is 482 µg/mL and 1700 µM. Moreover, the half-inhibitory concentration (IC50) in series [1] was less than 0.3 µM.
Regarding `CC(C)(N)CN(CC1CC1)C1(c2ccc(F)c(C(F)(F)F)c2)CC1` [N1-(cyclopropylmethyl)-N1-(1-(4-fluoro-3-(trifluoromethyl)phenyl)cyclopropyl)-2-methyl propane-1,2-diamine], in the series “physchem”, the solubility at 16 h was 511 µg/mL and 1500 µM. For the same molecule, the IC50 in series [1] was less than 0.3 µM.
On to `CC(C)(N)CN(C1CC1)C1(c2cccc(C(F)(F)F)c2)CC1` [N1-cyclopropyl-2-methyl-N1-(1-(3-(trifluoromethyl)phenyl)cyclopropyl)propane-1,2-diamine], for which the solubility at 16 h in “physchem” was 481 µg/mL and 1400 µM. Besides, the IC50 in series [1] is less than 0.3 µM.
